Assay results: the NIST ThermoML archive (doi:10.1021/je500762n)
± gives the expanded uncertainty stated by the source.

Tests used:
[1] = Molar enthalpy of transition or fusion; conditions: Crystal; DSC
[2] = Crystal; DTA

| Molar enthalpy of transition or fusion [1] | Normal melting temperature [2] | Compound |
| --- | --- | --- |
| 3.59 ± 0.12 kcal/mol | 61.07 ± 0.5 °C | CCCCCCCC[n+]1csc2ccccc21.F[P-](F)(F)(F)(F)F [N-octylbenzothiazolium hexafluorophosphate] |
| 4.8 ± 0.167 kcal/mol | 86.2 ± 0.5 °C | CCCCCCC[n+]1csc2ccccc21.F[P-](F)(F)(F)(F)F [3-heptylbenzo[d]thiazol-3-ium hexafluorophosphate] |
| 5.62 ± 0.167 kcal/mol | 85.64 ± 0.5 °C | CCCCCC[n+]1csc2ccccc21.F[P-](F)(F)(F)(F)F [N-hexylbenzothiazolium hexafluorophosphate] |
| 7.22 ± 0.215 kcal/mol | 139.11 ± 0.5 °C | CCCCC[n+]1csc2ccccc21.F[P-](F)(F)(F)(F)F [N-pentylbenzothiazolium hexafluorophosphate] |
